Assay results taken from patent US20260297542A1, “HERBICIDE RESISTANT PLANTS” (SYNGENTA CROP PROTECTION AG, priority 2023, published 2026).
Residue numbers refer to the chain shown, from its start.

What was measured:
Assay in all cases: E. coli hemG growth inhibition by herbicide, AtPPO1 variant
Assay type in all cases: cell-based
Conditions in all cases: read-out: percentage growth inhibition
[1] = target: T1, AtPPO1 V88I (Arabidopsis thaliana, UniProt P55826, V88I)
T1 construct: expressed in transfected cells; host or cells: E. coli BL21(DE3) hemG (hemG replaced by CmR), pET24a plasmid
T1 sequence (P55826 35-537 V88I): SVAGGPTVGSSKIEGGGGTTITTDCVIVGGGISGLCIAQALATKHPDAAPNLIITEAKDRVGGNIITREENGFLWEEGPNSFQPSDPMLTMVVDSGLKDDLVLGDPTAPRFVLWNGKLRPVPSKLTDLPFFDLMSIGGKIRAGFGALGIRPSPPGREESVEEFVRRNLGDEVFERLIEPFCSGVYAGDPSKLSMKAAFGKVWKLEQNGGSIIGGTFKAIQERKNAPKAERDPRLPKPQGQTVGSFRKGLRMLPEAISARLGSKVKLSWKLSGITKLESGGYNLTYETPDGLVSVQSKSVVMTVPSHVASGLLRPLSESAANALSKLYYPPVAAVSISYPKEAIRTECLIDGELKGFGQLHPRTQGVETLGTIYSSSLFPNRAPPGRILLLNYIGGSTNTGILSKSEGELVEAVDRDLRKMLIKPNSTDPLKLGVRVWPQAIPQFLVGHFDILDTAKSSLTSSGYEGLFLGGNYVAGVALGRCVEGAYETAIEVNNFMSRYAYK
In short: (§1)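 Variant plasmids were transformed into hemG-null BL21(DE3) and precultured 24 h with hematin. Washed cells were diluted 1:100 into Terrific broth containing 0.1 mM IPTG and herbicide (6.25 ppm 0 or E; 0.78 ppm B) or DMSO. After 24 h at 37° C, OD600 gave percent inhibition.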

[2] = target: T2, AtPPO1 Y361D (Arabidopsis thaliana, UniProt P55826, Y361D)
T2 construct: expressed in transfected cells; host or cells: E. coli BL21(DE3) hemG (pET24a, T7 promoter)
T2 sequence (P55826 35-537 Y361D): T1 sequence (P55826 35-537 V88I) with I54V, Y327D
In short: as §1

[3] = target: T3, AtPPO1 V365M (Arabidopsis thaliana, UniProt P55826, V365M)
T3 construct: expressed in transfected cells; host or cells: E. coli BL21(DE3) hemG (pET24a, T7 promoter)
T3 sequence (P55826 35-537 V365M): T1 sequence (P55826 35-537 V88I) with I54V, V331M
In short: as §1

[4] = target: T4, AtPPO1 V447C (Arabidopsis thaliana, UniProt P55826, V447C)
T4 construct: expressed in transfected cells; host or cells: E. coli BL21(DE3) hemG (pET24a, T7 promoter)
T4 sequence (P55826 35-537 V447C): T1 sequence (P55826 35-537 V88I) with I54V, V413C
In short: as §1

| Structure (SMILES) | inhibition at 6.25 ppm [1] | inhibition at 6.25 ppm [2] | inhibition at 6.25 ppm [3] | inhibition at 6.25 ppm [4] | inhibition at 0.78 ppm [1] | inhibition at 0.78 ppm [2] | inhibition at 0.78 ppm [3] | inhibition at 0.78 ppm [4] |
| --- | --- | --- | --- | --- | --- | --- | --- | --- |
| CC(C)N(C)S(=O)(=O)NC(=O)c1cc(-n2c(=O)cc(C(F)(F)F)n(C)c2=O)c(F)cc1Cl [Herbicide E, saflufenacil] | 66% | 14% | 22% | 53% | – | – | – | – |
| C#CCN1C(=O)C(F)(F)Oc2cc(F)c(-n3c(=O)n(C)c(=S)n(C)c3=O)cc21 [Herbicide B, trifludimoxazin] | – | – | – | – | 32% | 20% | 3% | 34% |
| CCOC(=O)[C@]1(C)CC(c2cc(-n3c(=O)n(C)c(=S)n(C)c3=O)c(F)cc2Cl)=NO1 [Herbicide D, ethyl (5S)-3-[2-chloro-5-(3,5-dimethyl-2,6-dioxo-4-thioxo-1,3,5-triazinan-1-yl)-4-fluoro-phenyl]-5-methyl-4H-isoxazole-5-carboxylate] | 43% | 33% | 42% | 32% | – | – | – | – |
